“Also recorded” adds a separate entry of the source.
Legend:
[1] = target: T1, multidrug and toxin extrusion (MATE)1 (Homo sapiens, UniProt Q96FL8); details: in vitro; cited from earlier work
T1 sequence (Q96FL8 1-570): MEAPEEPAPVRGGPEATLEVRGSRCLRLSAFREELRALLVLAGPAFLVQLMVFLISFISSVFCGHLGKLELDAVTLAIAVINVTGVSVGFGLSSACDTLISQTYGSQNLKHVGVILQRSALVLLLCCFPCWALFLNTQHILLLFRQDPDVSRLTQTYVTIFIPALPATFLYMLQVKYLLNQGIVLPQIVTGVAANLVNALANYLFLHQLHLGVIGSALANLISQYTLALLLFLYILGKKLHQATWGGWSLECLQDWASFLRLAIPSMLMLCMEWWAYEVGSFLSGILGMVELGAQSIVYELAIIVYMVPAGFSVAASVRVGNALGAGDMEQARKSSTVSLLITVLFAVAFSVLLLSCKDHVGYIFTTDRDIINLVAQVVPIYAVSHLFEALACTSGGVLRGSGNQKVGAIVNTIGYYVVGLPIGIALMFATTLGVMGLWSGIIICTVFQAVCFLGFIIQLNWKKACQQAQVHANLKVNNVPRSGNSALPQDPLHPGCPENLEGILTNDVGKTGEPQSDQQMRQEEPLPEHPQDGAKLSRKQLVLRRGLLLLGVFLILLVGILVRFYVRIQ

[2] = system: human prostate cancer xenograft models; details: cited from earlier work
P-glycoprotein (P-gp) = P-glycoprotein (P-gp) (Homo sapiens, UniProt P08183); details: cited from earlier work
MATE2-K = MATE2-K (Homo sapiens, UniProt Q86VL8); details: in vitro; cited from earlier work
P-gp = P-gp (Homo sapiens, UniProt P08183); details: in vitro; cited from earlier work
[3] = rat, in vivo
[4] = cited from earlier work
[5] = target: T2, organic anion-transporting polypeptide (OATP)1B1 (Homo sapiens, UniProt Q9Y6L6); details: in vitro; cited from earlier work
T2 sequence (Q9Y6L6 1-691): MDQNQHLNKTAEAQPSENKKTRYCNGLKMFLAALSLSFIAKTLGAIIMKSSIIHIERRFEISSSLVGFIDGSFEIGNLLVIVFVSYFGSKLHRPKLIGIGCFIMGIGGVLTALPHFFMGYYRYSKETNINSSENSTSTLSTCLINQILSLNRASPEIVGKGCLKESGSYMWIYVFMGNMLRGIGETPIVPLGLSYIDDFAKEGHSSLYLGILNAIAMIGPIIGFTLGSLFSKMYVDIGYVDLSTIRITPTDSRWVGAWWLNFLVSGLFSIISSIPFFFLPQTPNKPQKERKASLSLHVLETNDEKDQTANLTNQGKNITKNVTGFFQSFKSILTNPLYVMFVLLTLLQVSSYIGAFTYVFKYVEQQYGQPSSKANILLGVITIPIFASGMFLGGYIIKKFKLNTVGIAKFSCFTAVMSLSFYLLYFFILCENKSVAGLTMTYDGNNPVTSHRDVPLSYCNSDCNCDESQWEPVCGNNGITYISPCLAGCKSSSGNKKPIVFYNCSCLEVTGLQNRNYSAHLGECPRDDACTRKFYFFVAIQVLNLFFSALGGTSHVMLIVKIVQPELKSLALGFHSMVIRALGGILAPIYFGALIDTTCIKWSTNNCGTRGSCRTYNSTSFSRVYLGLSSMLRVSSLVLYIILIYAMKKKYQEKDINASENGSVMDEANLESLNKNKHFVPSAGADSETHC

[6] = in vitro and in vivo; cited from earlier work
nine CYP isoforms [7] = experiment: in vitro CYP inhibition; assay type: in vitro ADME; details: rank order and mechanistic static assessment
[8] = system: prostate cancer cells rendered castration resistant via overexpression of AR; details: cited from earlier work
CYP1A2 = details: in vitro; cited from earlier work
CYP2B6 = details: in vitro; cited from earlier work
AR = details: cited from earlier work
nine CYP isoforms [9] = details: in vitro; cited from earlier work
[10] = transgenic mouse carcinogenicity study; assay type: in vivo, 001178-T (hemizygous) RasH 2 mice; details: male and female RasH 2 mice, up to 500 mg/kg/dose BID, at least 26 weeks

MATE2-K, sequence (Q86VL8 1-566 isoform Q86VL8-3): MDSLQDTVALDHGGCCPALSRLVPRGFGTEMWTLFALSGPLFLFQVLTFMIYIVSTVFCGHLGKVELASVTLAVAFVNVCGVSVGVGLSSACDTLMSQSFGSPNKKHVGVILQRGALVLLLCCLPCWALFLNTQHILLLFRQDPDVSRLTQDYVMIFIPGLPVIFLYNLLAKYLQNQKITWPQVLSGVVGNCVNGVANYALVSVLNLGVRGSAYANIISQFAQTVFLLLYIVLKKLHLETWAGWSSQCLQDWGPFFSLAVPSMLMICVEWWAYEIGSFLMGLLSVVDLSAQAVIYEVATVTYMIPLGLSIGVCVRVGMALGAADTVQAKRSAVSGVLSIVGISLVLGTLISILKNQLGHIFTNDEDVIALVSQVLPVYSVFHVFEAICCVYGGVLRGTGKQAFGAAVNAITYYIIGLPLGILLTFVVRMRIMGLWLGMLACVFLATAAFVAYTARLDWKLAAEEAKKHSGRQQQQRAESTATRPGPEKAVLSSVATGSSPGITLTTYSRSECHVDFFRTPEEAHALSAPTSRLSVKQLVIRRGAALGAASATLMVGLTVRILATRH
P-glycoprotein (P-gp), sequence (P08183 whole entry): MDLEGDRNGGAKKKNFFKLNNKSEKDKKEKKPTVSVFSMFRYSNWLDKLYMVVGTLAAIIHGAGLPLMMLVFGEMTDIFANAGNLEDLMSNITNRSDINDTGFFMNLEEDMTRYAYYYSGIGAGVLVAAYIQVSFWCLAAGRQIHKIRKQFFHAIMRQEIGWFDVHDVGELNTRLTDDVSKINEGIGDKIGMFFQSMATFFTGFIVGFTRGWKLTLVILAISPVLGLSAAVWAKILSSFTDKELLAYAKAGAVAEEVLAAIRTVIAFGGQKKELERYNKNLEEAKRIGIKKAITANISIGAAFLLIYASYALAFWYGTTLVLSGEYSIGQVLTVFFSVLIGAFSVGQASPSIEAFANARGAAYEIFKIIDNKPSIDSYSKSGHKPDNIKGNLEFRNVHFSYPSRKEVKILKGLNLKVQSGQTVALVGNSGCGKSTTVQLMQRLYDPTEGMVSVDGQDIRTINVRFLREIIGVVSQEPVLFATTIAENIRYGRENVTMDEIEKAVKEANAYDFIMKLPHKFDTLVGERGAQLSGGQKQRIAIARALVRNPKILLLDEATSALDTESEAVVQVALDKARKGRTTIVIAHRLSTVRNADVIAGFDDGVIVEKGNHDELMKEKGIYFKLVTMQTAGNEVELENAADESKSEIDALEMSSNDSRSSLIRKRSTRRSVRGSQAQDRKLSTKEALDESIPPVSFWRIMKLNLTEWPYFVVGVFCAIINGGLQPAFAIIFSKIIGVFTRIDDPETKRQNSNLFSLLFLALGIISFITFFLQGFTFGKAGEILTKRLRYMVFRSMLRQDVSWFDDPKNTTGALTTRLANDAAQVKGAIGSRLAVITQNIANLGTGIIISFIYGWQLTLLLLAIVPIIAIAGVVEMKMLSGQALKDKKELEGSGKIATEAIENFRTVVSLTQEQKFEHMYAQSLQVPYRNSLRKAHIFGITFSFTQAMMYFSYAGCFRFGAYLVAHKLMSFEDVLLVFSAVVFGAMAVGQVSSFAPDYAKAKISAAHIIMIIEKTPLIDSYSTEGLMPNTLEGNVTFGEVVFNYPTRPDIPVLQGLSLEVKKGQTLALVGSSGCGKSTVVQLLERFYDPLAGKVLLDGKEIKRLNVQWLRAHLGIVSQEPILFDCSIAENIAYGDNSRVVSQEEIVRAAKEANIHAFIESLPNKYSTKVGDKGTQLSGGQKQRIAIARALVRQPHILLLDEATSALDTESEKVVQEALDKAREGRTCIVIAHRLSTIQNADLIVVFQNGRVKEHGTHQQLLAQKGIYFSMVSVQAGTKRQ
P-gp, sequence (P08183 whole entry): as above

**Q.** Which “inhibition of MATE1-mediated transport” value [1] does the source give for `CC(O)c1cc(C(=O)N[C@@H](C)Cn2ccc(-c3ccc(C#N)c(Cl)c3)n2)[nH]n1` (some centres unmarked) [Darolutamide] here?
**A.** The value was “observed”.

**Q.** And the tumor regression ([2]; non-castrate hormone-sensitive and bicalutamide-resistant human prostate cancer xenograft models)?
**A.** Its tumor regression is “partial or complete tumor regression”.

**Q.** And the prostate tumor progression ([2]; several cell line- and patient derived models)?
**A.** The prostate tumor progression was “inhibits prostate tumor progression”.

**Q.** What about the “substrate for P-gp” value (P-glycoprotein (P-gp)) of the same molecule?
**A.** The value was “substrate”.

**Q.** And the “inhibition of MATE2-K-mediated transport” value (MATE2-K)?
**A.** Its value is “observed”.

**Q.** And the “inhibition of P-gp-mediated transport” value (P-gp)?
**A.** The value was “observed”.

**Q.** What about the “additional changes to reproductive tissues” value [3] of the same molecule?
**A.** The value was “minimal increase in vacuolation of the pituitary gland, atrophy and secretory reduction in seminal vesicles and mammary glands”.

**Q.** And the “deaths during the treatment period” value [3]?
**A.** The value was “No deaths occurred”.

**Q.** What about the other adverse effects [3] of the same molecule?
**A.** Its other adverse effects is “No other adverse effects were observed”.

**Q.** And the “reversibility of changes in the male reproductive organs” value [3]?
**A.** Its value is “reversed or partially resolved”.

**Q.** What about the “effect of co-administration on CYP3A4/P-gp substrates” value ([4]; Phase I) of the same molecule?
**A.** The value was “no effect or only minor effects”.

**Q.** What about the “increase of rosuvastatin exposure with darolutamide” value ([4]; because of BCRP and probably also OATPB1/OATPB3 inhibition) of the same molecule?
**A.** Its value is 5.2 fold.

**Q.** What about the “increase of darolutamide exposure” value ([4]; co-administered itraconazole, Phase I) of the same molecule?
**A.** Its value is 1.75 fold.

**Q.** And the “decrease of darolutamide exposure” value ([4]; with rifampicin, Phase I)?
**A.** The value was 72%.

**Q.** What about the “inhibition of OATP1B1-mediated transport” value [5] of the same molecule?
**A.** The value was “observed”.

**Q.** What about the “interconversion of the diastereoisomers (S,R)- and (S,S)- via keto-darolutamide” value [6] of the same molecule?
**A.** The value was “Rapid interconversion”.

**Q.** And the “risk of clinically relevant DDIs via CYP inhibition” value (nine CYP isoforms [7])?
**A.** The value was “very low”.

**Q.** What about the “agonist activity with AR overexpression” value [8] of the same molecule?
**A.** The value was “lacks the partial agonist activity”.

**Q.** And the “induction of CYP1A2 activity” value (CYP1A2)?
**A.** Its value is “no relevant induction”.

**Q.** And the “induction of CYP2B6 activity” value (CYP2B6)?
**A.** The value was “no relevant induction”.

**Q.** What about the “binding affinity to the AR” value (AR) of the same molecule?
**A.** Its value is “greater affinity than bicalutamide; also recorded: high affinity”.

**Q.** And the “inhibition of enzymatic activity of nine CYP isoforms” value (nine CYP isoforms [9])?
**A.** The value was “not inhibited or slightly inhibited”.

**Q.** And the carcinogenic potential [10]?
**A.** The carcinogenic potential was “no carcinogenic potential”.
